What all share (experiment): relative viability (nuclei count vs DMSO), 5 days (fraction); higher = more cells survive
Compound in the experiment “Erlotinib + Pictilisib”: C#Cc1cccc(Nc2ncnc3cc(OCCOC)c(OCCOC)cc23)c1 [Erlotinib] + CS(=O)(=O)N1CCN(Cc2cc3nc(-c4cccc5[nH]ncc45)nc(N4CCOCC4)c3s2)CC1 [Pictilisib] (partner 1 µM)
The procedure, abridged:
(§1)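 Lung cancer cell lines were seeded in 1536-well plates and dosed by pin tool the next day, with either a single drug or a fixed anchor-drug dose combined with five library-drug doses (not always all listed) spaced in √10 steps. Five days later, one step fixed the cells and stained their nuclei (final 0.05% Triton X-100, 1% formaldehyde, 1 ug/ml Hoechst), and nuclei were counted on 4× images. Relative viability is the nuclei count in treated wells divided by the count in vehicle wells, and each value is the median of duplicate plates.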

Compound in the experiment “Erlotinib + Crizotinib”: C#Cc1cccc(Nc2ncnc3cc(OCCOC)c(OCCOC)cc23)c1 [Erlotinib] + C[C@@H](Oc1cc(-c2cnn(C3CCNCC3)c2)cnc1N)c1c(Cl)ccc(F)c1Cl [Crizotinib] (partner 1 µM)
The procedure, abridged:
as §1

Compound in another experiment: O=C(Nc1c[nH]nc1-c1nc2ccc(CN3CCOCC3)cc2[nH]1)NC1CC1 [AT9283]
The method, boiled down:
(§2)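 Viability is treated-well nuclei as a fraction of vehicle-well nuclei, reported as the median across plates. Before counting, lung cancer cell lines were kept overnight at 37 °C in 1536-well plates, pinned with five √10-spaced library-drug doses on vehicle-anchored plates, and left 5 days without medium change, then fixed, permeabilised and Hoechst-stained in one step, imaged at 4× and counted by MetaXpress. A plate passed only if control CV was below 25% and at least one doubling occurred.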

Compound in a further experiment: C#Cc1cccc(Nc2ncnc3cc(OCCOC)c(OCCOC)cc23)c1 [Erlotinib]
The procedure, abridged:
as §2

Compound in another experiment: N=C(N)NC(=N)NCCc1ccccc1 [Phenformin] (anchor plate)
As to conditions: 250 µM. The method, boiled down:
as §2

Regarding COR-L 105, the relative viability with Erlotinib + Pictilisib (first compound 0.02 µM) stood at 0.406; in the experiment with Erlotinib + Pictilisib (first compound 0.2 µM), 0.342; with Erlotinib + Pictilisib (first compound 0.6325 µM), 0.351; in the experiment with Erlotinib + Pictilisib (first compound 2 µM) it was 0.332; in the experiment with Erlotinib + Crizotinib (first compound 0.2 µM), 0.656; in the experiment with Erlotinib + Crizotinib (first compound 0.6325 µM) it was 0.39. Moreover, the relative viability with Erlotinib + Crizotinib (first compound 2 µM) turned out to be 0.198; in the experiment with AT9283 (0.003 µM), 0.983; with AT9283 (0.03 µM) it was 0.4; with AT9283 (0.09487 µM), 0.334; with AT9283 (0.3 µM) it was 0.334; with Erlotinib (0.02 µM), 0.931. The relative viability with Erlotinib (0.2 µM) came to 0.515; in the experiment with Erlotinib (0.6325 µM) it was 0.4; with Erlotinib (2 µM), 0.334; with Phenformin, 0.551.

For the cell line LOU-NH91, the relative viability with Erlotinib + Pictilisib (first compound 0.02 µM) was determined as 0.471; with Erlotinib + Pictilisib (first compound 0.2 µM) it was 0.505; with Erlotinib + Pictilisib (first compound 0.6325 µM) it was 0.465; with Erlotinib + Pictilisib (first compound 2 µM), 0.475; in the experiment with Erlotinib + Crizotinib (first compound 0.02 µM) it was 0.601; with Erlotinib + Crizotinib (first compound 0.2 µM), 0.54. For the same cell line, the relative viability in the experiment with Erlotinib + Crizotinib (first compound 0.6325 µM) was 0.55; with Erlotinib + Crizotinib (first compound 2 µM), 0.499; in the experiment with AT9283 (0.003 µM) it was 0.936; in the experiment with AT9283 (0.03 µM), 0.812; with AT9283 (0.09487 µM), 0.614; with AT9283 (0.3 µM) it was 0.48. In addition, the relative viability was 0.831 in the experiment with Erlotinib (0.02 µM); 0.696 in the experiment with Erlotinib (0.2 µM); 0.756 with Erlotinib (0.6325 µM); 0.68 in the experiment with Erlotinib (2 µM); 0.705 with Phenformin.

Consider PC-3 [JPC-3], for which the relative viability worked out at 0.573 in the experiment with Erlotinib + Pictilisib (first compound 0.02 µM); 0.395 in the experiment with Erlotinib + Pictilisib (first compound 0.2 µM); 0.416 with Erlotinib + Pictilisib (first compound 0.6325 µM); 0.295 in the experiment with Erlotinib + Pictilisib (first compound 2 µM); 0.887 in the experiment with Erlotinib + Crizotinib (first compound 0.02 µM); 0.409 with Erlotinib + Crizotinib (first compound 0.2 µM). For the same cell line, the relative viability amounted to 0.324 with Erlotinib + Crizotinib (first compound 0.6325 µM); 0.377 with Erlotinib + Crizotinib (first compound 2 µM); 1.03 with AT9283 (0.003 µM); 0.961 in the experiment with AT9283 (0.03 µM); 0.868 with AT9283 (0.09487 µM); 0.498 in the experiment with AT9283 (0.3 µM). The relative viability in the experiment with Erlotinib (0.02 µM) came out at 0.945; with Erlotinib (0.2 µM) it was 0.636; with Erlotinib (0.6325 µM), 0.459; with Erlotinib (2 µM), 0.407; in the experiment with Phenformin, 0.469.

For NCI-H1666, the relative viability with Erlotinib + Pictilisib (first compound 0.02 µM) came to 0.466; with Erlotinib + Pictilisib (first compound 0.2 µM) it was 0.329; with Erlotinib + Pictilisib (first compound 0.6325 µM) it was 0.317; in the experiment with Erlotinib + Pictilisib (first compound 2 µM), 0.267; with Erlotinib + Crizotinib (first compound 0.02 µM), 1.02; with Erlotinib + Crizotinib (first compound 0.2 µM) it was 0.856. Further, the relative viability is 0.66 with Erlotinib + Crizotinib (first compound 0.6325 µM); 0.428 in the experiment with Erlotinib + Crizotinib (first compound 2 µM); 0.975 in the experiment with AT9283 (0.003 µM); 0.847 in the experiment with AT9283 (0.03 µM); 0.66 with AT9283 (0.09487 µM); 0.535 with AT9283 (0.3 µM). For the same cell line, the relative viability is 0.973 in the experiment with Erlotinib (0.02 µM); 0.928 with Erlotinib (0.2 µM); 0.855 with Erlotinib (0.6325 µM); 0.728 in the experiment with Erlotinib (2 µM); 0.571 with Phenformin.

Take EPLC-272H: the relative viability in the experiment with Erlotinib + Pictilisib (first compound 0.02 µM) came to 0.314; with Erlotinib + Pictilisib (first compound 0.2 µM), 0.279; in the experiment with Erlotinib + Pictilisib (first compound 0.6325 µM), 0.352; with Erlotinib + Pictilisib (first compound 2 µM) it was 0.242; with Erlotinib + Crizotinib (first compound 0.02 µM) it was 0.911; with Erlotinib + Crizotinib (first compound 0.2 µM), 0.957. Further, the relative viability with Erlotinib + Crizotinib (first compound 0.6325 µM) was found to be 0.884; in the experiment with Erlotinib + Crizotinib (first compound 2 µM), 0.596; with AT9283 (0.003 µM) it was 0.886; with AT9283 (0.03 µM), 0.81; with AT9283 (0.09487 µM) it was 0.203; with AT9283 (0.3 µM), 0.156. Besides, the relative viability with Erlotinib (0.02 µM) amounted to 1.06; in the experiment with Erlotinib (0.2 µM), 0.882; with Erlotinib (0.6325 µM), 1.02; in the experiment with Erlotinib (2 µM), 0.724; in the experiment with Phenformin, 0.321.

For HCC-15, the relative viability with Erlotinib + Pictilisib (first compound 0.02 µM) turned out to be 0.758; in the experiment with Erlotinib + Pictilisib (first compound 0.6325 µM), 0.735; in the experiment with Erlotinib + Pictilisib (first compound 2 µM), 0.659; with Erlotinib + Crizotinib (first compound 0.02 µM), 0.784; with Erlotinib + Crizotinib (first compound 0.2 µM) it was 0.833; with Erlotinib + Crizotinib (first compound 0.6325 µM), 0.936. Besides, the relative viability with Erlotinib + Crizotinib (first compound 2 µM) was 0.7; in the experiment with AT9283 (0.003 µM), 0.955; with AT9283 (0.03 µM) it was 0.589; in the experiment with AT9283 (0.09487 µM), 0.325; with AT9283 (0.3 µM), 0.17; with Erlotinib (0.02 µM), 1.05. Also, the relative viability came out at 0.97 in the experiment with Erlotinib (0.2 µM), 1.08 in the experiment with Erlotinib (0.6325 µM), 0.888 with Erlotinib (2 µM) and 0.491 with Phenformin.

For NCI-H1792, the relative viability with Erlotinib + Pictilisib (first compound 0.02 µM) turned out to be 0.305; with Erlotinib + Pictilisib (first compound 0.2 µM) it was 0.183; with Erlotinib + Pictilisib (first compound 0.6325 µM) it was 0.269; in the experiment with Erlotinib + Pictilisib (first compound 2 µM), 0.21; with Erlotinib + Crizotinib (first compound 0.02 µM), 1; with Erlotinib + Crizotinib (first compound 0.2 µM), 0.931. The relative viability worked out at 1.06 in the experiment with Erlotinib + Crizotinib (first compound 0.6325 µM); 0.801 with Erlotinib + Crizotinib (first compound 2 µM); 0.887 in the experiment with AT9283 (0.003 µM); 0.886 in the experiment with AT9283 (0.03 µM); 0.943 with AT9283 (0.09487 µM); 0.376 with AT9283 (0.3 µM). Besides, the relative viability in the experiment with Erlotinib (0.02 µM) is 0.875; in the experiment with Erlotinib (0.2 µM), 0.821; with Erlotinib (0.6325 µM), 0.92; in the experiment with Erlotinib (2 µM) it was 0.742; with Phenformin, 0.343.

Values taken from the supplement of paper PMC10307832.
